The test system of the assay is HepG2 cells. The assay is described as follows: Sulf2 silencing and Sorafenib in liver cancer cell model. The format is cell-based. Conditions: Homo sapiens, Sorafenib exposure 72 h, read-out: IC50 in inhibiting tumor growth (Sorafenib). The protocol:
The effect of Sulf2 silencing in combination with Sorafenib in a liver cancer cell model (HepG2 cells) was studied. HepG2 cells incubated with various concentrations of SULF2_1 siRNA for 96 h, and Sorafenib (404) was added after 24 h to allow exposure for 72 h.

As for `CNC(=O)c1cc(Oc2ccc(NC(=O)Nc3ccc(Cl)c(C(F)(F)F)c3)cc2)ccn1` [Sorafenib, sorafenib], the IC50 (as a rule, the concentration at which inhibition is half-maximal) is roughly 4 µM.

The values above are taken from patent publication US20220333108A1, “COMBINATIONS OF SIRNAS WITH SIRNAS AGAINST SULF2 OR GPC3 FOR USE IN TREATING CANCER” (Sirnaomics, Inc., priority 2021, published 2022).
